Laboratory results as given in article PMC12704298, “Divergent acetyl-CoA binding modes mediate allosteric inhibition of bacterial hybrid-type malic enzymes” (The Journal of Biological Chemistry, 2025).

Tests used:
EcMaeB [1] = target: T1, EcMaeB (Escherichia coli, UniProt P76558); set-up: method as in PMID 17557829; details: previous study; cited from earlier work
T1 construct: His-tag (C); made in house; host or cells: E. coli BL21(DE3)
T1 sequence (P76558 1-759): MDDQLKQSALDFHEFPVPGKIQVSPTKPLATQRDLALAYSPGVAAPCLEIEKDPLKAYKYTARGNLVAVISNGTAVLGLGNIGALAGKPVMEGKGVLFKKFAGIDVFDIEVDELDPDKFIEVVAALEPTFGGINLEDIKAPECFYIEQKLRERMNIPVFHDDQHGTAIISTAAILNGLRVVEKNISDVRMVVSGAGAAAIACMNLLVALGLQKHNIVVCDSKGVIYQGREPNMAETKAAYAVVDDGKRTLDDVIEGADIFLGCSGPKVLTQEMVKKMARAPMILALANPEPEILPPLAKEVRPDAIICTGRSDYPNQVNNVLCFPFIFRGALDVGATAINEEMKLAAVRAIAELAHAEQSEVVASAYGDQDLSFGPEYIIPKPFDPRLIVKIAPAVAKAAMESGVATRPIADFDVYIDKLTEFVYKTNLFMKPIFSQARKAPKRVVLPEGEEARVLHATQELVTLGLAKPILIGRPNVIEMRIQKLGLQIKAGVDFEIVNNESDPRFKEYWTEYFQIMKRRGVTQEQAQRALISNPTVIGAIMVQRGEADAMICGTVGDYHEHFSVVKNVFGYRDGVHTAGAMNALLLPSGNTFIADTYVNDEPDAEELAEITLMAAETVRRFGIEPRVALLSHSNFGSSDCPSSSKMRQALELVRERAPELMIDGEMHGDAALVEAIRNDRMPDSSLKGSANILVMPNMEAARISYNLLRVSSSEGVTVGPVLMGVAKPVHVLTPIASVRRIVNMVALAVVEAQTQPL

EcMaeB [2] = target: T1, EcMaeB; assay: Enzyme kinetic parameters (Michaelis-Menten, substrate inhibition, empirical Hill plots); type: biochemical
Protocol: (§1) Spectrophotometric assays were used to monitor the oxidative decarboxylation of L-malate to pyruvate using a SpectraMax M2, UV-Visible spectrophotometer (Molecular Devices) operated by SoftMax Pro Software with kinetic mode. All assays recorded the Δabsorbance at 340 nm (NADPH) at 30 °C. Assays were initiated by the addition of enzyme to the otherwise complete reaction mixture. […] Acetyl-CoA was tested at 5 μM.
(§2) For this substrate inhibition model, x should be fixed. […] The plots shown in Fig. S1F were fitted to the empirical Hill equation: v0=Vmax·[malate]^h/(K0.5h+[malate]^h) where K0.5 indicates the substrate concentration for half-saturation. When h is equal to 1, K0.5 matches Michaelis constant Km.

DME = test system: DME; set-up: method as in PMID 10407149; details: cited from earlier work
BbMaeB = target: T2, BbMaeB (Bdellovibrio bacteriovorus, UniProt A0A1Z3N8R4); assay: Enzyme kinetic parameters (Michaelis-Menten, substrate inhibition, empirical Hill plots); type: biochemical, Bdellovibrio bacteriovorus strain SSB218315
T2 sequence (A0A1Z3N8R4 1-776): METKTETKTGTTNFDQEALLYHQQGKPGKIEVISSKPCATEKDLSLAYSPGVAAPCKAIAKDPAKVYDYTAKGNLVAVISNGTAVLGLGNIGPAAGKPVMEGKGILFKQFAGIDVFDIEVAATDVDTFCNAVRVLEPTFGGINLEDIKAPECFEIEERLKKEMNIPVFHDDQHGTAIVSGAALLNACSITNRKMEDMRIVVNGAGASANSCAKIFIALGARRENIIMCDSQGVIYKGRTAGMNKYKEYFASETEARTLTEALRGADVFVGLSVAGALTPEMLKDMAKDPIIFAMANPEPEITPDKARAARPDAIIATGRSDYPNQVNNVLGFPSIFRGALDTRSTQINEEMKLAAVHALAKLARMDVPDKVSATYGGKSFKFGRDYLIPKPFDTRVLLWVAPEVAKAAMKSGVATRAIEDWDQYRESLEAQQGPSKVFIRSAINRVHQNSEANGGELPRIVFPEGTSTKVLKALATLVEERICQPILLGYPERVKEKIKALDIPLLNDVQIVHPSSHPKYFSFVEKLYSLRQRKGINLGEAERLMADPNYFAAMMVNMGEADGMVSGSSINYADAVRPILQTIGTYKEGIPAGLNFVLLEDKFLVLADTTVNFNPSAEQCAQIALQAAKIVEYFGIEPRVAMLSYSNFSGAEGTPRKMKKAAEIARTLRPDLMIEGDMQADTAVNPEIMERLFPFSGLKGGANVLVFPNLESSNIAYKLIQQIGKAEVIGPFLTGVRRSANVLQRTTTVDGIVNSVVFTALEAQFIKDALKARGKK
Protocol: as §1, §2

[3] = target: the molecule itself; assay: crystal structure; EcMaeB without cofactors and acetyl-CoA; 20 mg/ml protein, 0.2 M potassium chloride pH 7.0, 20% v/v PEG 3350, 20 °C; homohexamer
[4] = substrate: O=C(O)C[C@H](O)C(=O)O; assay: Enzyme kinetic parameters (Michaelis-Menten, substrate inhibition, empirical Hill plots); type: biochemical, Escherichia coli; details: other: EcMaeB; substrate inhibition plot, NADP+ fixed 0.5 mM, without acetyl-CoA; pH 7.5; 30.0 °C
[5] = substrate: O=C(O)C[C@H](O)C(=O)O; assay: as above; type: biochemical, Bdellovibrio bacteriovorus strain SSB218315; details: other: BbMaeB; substrate inhibition plot, NADP+ fixed 0.5 mM, without acetyl-CoA; pH 7.5; 30.0 °C

For [Mg+2] [Mg^2+], the “concentration at which EcMaeB activity is inhibited” value (EcMaeB [1]) is given as “above 4 mM” and the “effect of different Mg2+ concentrations on kinetic parameters” value (EcMaeB [2]) is given as “no significant changes in kinetic parameters”.

In the case of CCCC(=O)SCCNC(=O)CCNC(=O)[C@H](O)C(C)(C)COP(=O)(O)OP(=O)(O)OC[C@H]1O[C@@H](n2cnc3c(N)ncnc32)[C@H](O)[C@@H]1OP(=O)(O)O [butyryl-CoA], the “effect on DME activity” value (DME) is given as “inhibited”.

In the case of O=C(O)C[C@H](O)C(=O)O [malate, L-malate], the “K0.5 from the empirical Hill equation” value (EcMaeB [2]; EcMaeB, in the presence of acetyl-CoA, 0.5 mM NADP+, 300 nM enzyme) is reported as 18.1 ± 3.20 mM and the “K0.5 from the empirical Hill equation” value (BbMaeB; in the presence of acetyl-CoA, 0.5 mM NADP+, 300 nM enzyme) is reported as 7.44 ± 1.21 mM.

In the case of CCC(=O)SCCNC(=O)CCNC(=O)[C@H](O)C(C)(C)COP(=O)(O)OP(=O)(O)OC[C@H]1O[C@@H](n2cnc3c(N)ncnc32)[C@H](O)[C@@H]1OP(=O)(O)O [propionyl-CoA], the “effect on DME activity” value (DME) is listed as “inhibited”.

With NADP^+ the “change of Km for NADP+ with Mn2+ instead of Mg2+” value (EcMaeB [2]; EcMaeB, 5 mM MnCl2) was “approximately doubled” and the “change of Km for NADP+ with Mn2+ instead of Mg2+” value (BbMaeB; 5 mM MnCl2) was “approximately doubled”.

B1: malic enzyme B (MaeB) from Escherichia coli (enzyme, UniProt P76558 1-759, looked up)
chain: T1 sequence (P76558 1-759)
notes: MaeB of E. coli, gene amplified from genomic DNA of strain SHuffle T7; Cloned in pET-28a(+); Homohexamer in the crystal and in cryo-EM; also called EcMaeB; EcMaeBapo; source: E. coli BL21(DE3), purified (HisTrap TALON, size-exclusion chromatography)
With B1 the “stoichiometry N” value [3] was 6 and the Km [4] was 20.7 ± 8.83 mM.

B2: BbMaeB (Bdellovibrio bacteriovorus) (protein)
chain: T2 sequence (A0A1Z3N8R4 1-776)
B2 gave a Km [5] of 6.22 ± 1.55 mM.
